What was measured:
[1] = test system: brains, heart, liver, muscle, and DRG of the NHPs; test: Maturation of TTM-001 and TTM-002 capsids, NGS enrichment in NHP tissues; type: in vivo; details: relative to AAV9 control
In short: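 Variants carry mutations within and flanking the loop IV peptide insert: positions 450–466 were triplet-randomized, while positions 449–466 received low-frequency point mutations. The combined pool went into two NHPs, and each peptide was scored by NGS enrichment ratio against AAV9.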

brain = test: Matured TTM-001 and TTM-002 variants, NGS enrichment in mouse brain; type: in vivo, mice; details: relative to AAV9 control
[2] = NGS fold-enrichment of matured AAV capsid variants, NHP brain, RNA
[3] = NGS fold-enrichment, DRG of NHPs
[4] = NGS fold-enrichment, RNA, brain of NHPs
[5] = NGS fold-enrichment, heart of NHPs
[6] = NGS fold-enrichment, liver DNA of NHPs
[7] = NGS fold-enrichment, liver RNA of NHPs
[8] = NGS fold-enrichment, muscle of NHPs
[9] = NGS fold-enrichment, brain of mice
[10] = NGS fold-enrichment of RNA, NHP brain
[11] = NGS fold-enrichment, NHP liver DNA
[12] = NGS fold-enrichment, NHP liver RNA
[13] = NGS fold-enrichment, NHP muscle
[14] = NGS fold-enrichment, mouse brain

| Sequence | Fold Enrichment relative to AAV9, Brain (NHP) [1, 2] | Fold Enrichment relative to AAV9, DRG (NHP) ([1]; NHP DRG) | Fold Enrichment relative to AAV9, Heart (NHP) ([1]; NHP heart) | Fold Enrichment relative to AAV9, Liver DNA (NHP) ([1]; NHP liver, DNA) | Fold Enrichment relative to AAV9, Liver RNA (NHP) ([1]; NHP liver, RNA) | Fold Enrichment relative to AAV9, Muscle (NHP) ([1]; NHP muscle) | Fold Enrichment relative to AAV9, DRG (NHP) [1, 3] | Fold Enrichment relative to AAV9, Brain (NHP) [1, 4] | Fold Enrichment relative to AAV9, Heart (NHP) [1, 5] | Fold Enrichment relative to AAV9, Liver DNA (NHP) [1, 6] | Fold Enrichment relative to AAV9, Liver RNA (NHP) [1, 7] | Fold Enrichment relative to AAV9, Muscle (NHP) [1, 8] | Fold Enrichment relative to AAV9, Brain (Mouse) (brain; [9]) | Fold Enrichment relative to AAV9, Brain (NHP) [1, 10] | Fold Enrichment relative to AAV9, DRG (NHP) ([1]; NGS fold-enrichment, NHP DRG) | Fold Enrichment relative to AAV9, Heart (NHP) ([1]; NGS fold-enrichment, NHP heart) | Fold Enrichment relative to AAV9, Liver DNA (NHP) [1, 11] | Fold Enrichment relative to AAV9, Liver RNA (NHP) [1, 12] | Fold Enrichment relative to AAV9, Muscle (NHP) [1, 13] | Fold Enrichment relative to AAV9, Brain (Mouse) (brain; [14]) | further results |
| --- | --- | --- | --- | --- | --- | --- | --- | --- | --- | --- | --- | --- | --- | --- | --- | --- | --- | --- | --- | --- | --- |
| KTELGSGSPHSKAQNQQT | 52.232 fold | 0.000 fold | 0.007 fold | 0.088 fold | 0.532 fold | 0.006 fold | – | – | – | – | – | – | – | – | – | – | – | – | – | – | Fold Enrichment relative to AAV9, Brain (Mouse) (brain; mouse brain): 87.314 fold |
| KTELHSGSPHSKAQNQQT | – | – | – | – | – | – | 0.000 fold | 74.620 fold | 0.000 fold | 0.089 fold | 0.021 fold | 0.000 fold | 53.124 fold | – | – | – | – | – | – | – | – |
| KTELRHDSPHKSGQNQQT | – | – | – | – | – | – | – | – | – | – | – | – | – | 98.098 fold | 0.000 fold | 0.019 fold | 0.007 fold | 0.000 fold | 0.000 fold | 6.588 fold | – |
| KTELRSGSPHSKAQNQQT | 54.289 fold | 0.000 fold | 0.007 fold | 0.239 fold | 0.790 fold | 0.040 fold | – | – | – | – | – | – | – | – | – | – | – | – | – | – | Fold Enrichment relative to AAV9, Brain (Mouse) (brain; mouse brain): 57.814 fold |
| KTELTSGSPHSKAQNQQT | – | – | – | – | – | – | 0.000 fold | 74.548 fold | 0.000 fold | 0.421 fold | 0.537 fold | 0.000 fold | 100.311 fold | – | – | – | – | – | – | – | – |
| KTELWHDSPHKSGQNQQT | – | – | – | – | – | – | – | – | – | – | – | – | – | 85.323 fold | 0.057 fold | 0.020 fold | 0.243 fold | 0.000 fold | 0.000 fold | 9.915 fold | – |
| KTEMKHDSPHKSGQNQQT | – | – | – | – | – | – | – | – | – | – | – | – | – | 240.075 fold | 0.000 fold | 0.000 fold | 0.000 fold | 0.000 fold | 0.000 fold | 3.183 fold | – |
| KTENASGSPHSKAQNQQT | 58.187 fold | 0.000 fold | 0.038 fold | 0.129 fold | 0.371 fold | 0.000 fold | – | – | – | – | – | – | – | – | – | – | – | – | – | – | Fold Enrichment relative to AAV9, Brain (Mouse) (brain; mouse brain): 88.439 fold |
| KTENGSASPHSKALNQQT (KTFNGSASPHSKALNQQT) | – | – | – | – | – | – | – | – | – | – | – | – | – | 84.258 fold | 0.000 fold | 0.122 fold | 0.037 fold | 0.104 fold | 0.000 fold | 31.855 fold | – |
| KTENISGSPHSKAQNQQT | – | – | – | – | – | – | 0.000 fold | 76.072 fold | 0.000 fold | 0.132 fold | 0.115 fold | 0.000 fold | 83.118 fold | 76.072 fold | 0.000 fold | 0.000 fold | 0.132 fold | 0.115 fold | 0.000 fold | 83.118 fold | – |
| KTENKSGSPHSKAQNQQT | – | – | – | – | – | – | – | – | – | – | – | – | – | 103.854 fold | 0.000 fold | 0.037 fold | 0.119 fold | 0.000 fold | 0.000 fold | 31.182 fold | – |
| KTENLSGSPHSKAQNQQT | – | – | – | – | – | – | 0.070 fold | 70.303 fold | 0.000 fold | 0.470 fold | 0.395 fold | 0.000 fold | 107.385 fold | – | – | – | – | – | – | – | – |
| KTENMSGSPHSKAQNQQT | – | – | – | – | – | – | 0.000 fold | 89.247 fold | 0.000 fold | 0.260 fold | 0.000 fold | 0.000 fold | 130.568 fold | 89.247 fold | 0.000 fold | 0.000 fold | 0.260 fold | 0.000 fold | 0.000 fold | 130.568 fold | – |
| KTENTSGSPHSKAQNQQT | – | – | – | – | – | – | 0.000 fold | 74.061 fold | 0.000 fold | 0.730 fold | 0.233 fold | 0.218 fold | 96.249 fold | – | – | – | – | – | – | – | – |
| KTENVSGSPHSKAQNQQT | – | – | – | – | – | – | 0.000 fold | 88.506 fold | 0.000 fold | 0.112 fold | 0.964 fold | 0.000 fold | 108.591 fold | 88.506 fold | 0.000 fold | 0.000 fold | 0.112 fold | 0.964 fold | 0.000 fold | 108.591 fold | – |
| KTEPMSGSPHSKAQNQQT | 50.960 fold | 0.203 fold | 0.000 fold | 0.415 fold | 1.816 fold | 0.000 fold | – | – | – | – | – | – | – | – | – | – | – | – | – | – | Fold Enrichment relative to AAV9, Brain (Mouse) (brain; mouse brain): 126.322 fold |
| KTEPTSGSPHSKAQNQQT | 56.134 fold | 0.000 fold | 0.000 fold | 0.527 fold | 0.061 fold | 0.000 fold | – | – | – | – | – | – | – | – | – | – | – | – | – | – | Fold Enrichment relative to AAV9, Brain (Mouse) (brain; mouse brain): 143.397 fold |
| KTEQTSGSPHSKAQNQQT | 56.683 fold | 0.000 fold | 0.045 fold | 0.430 fold | 0.792 fold | 0.000 fold | – | – | – | – | – | – | – | – | – | – | – | – | – | – | Fold Enrichment relative to AAV9, Brain (Mouse) (brain; mouse brain): 59.360 fold |
| KTEQVSGSPHSKAQNQQT | 58.247 fold | 0.000 fold | 0.000 fold | 0.081 fold | 0.000 fold | 0.000 fold | – | – | – | – | – | – | – | – | – | – | – | – | – | – | Fold Enrichment relative to AAV9, Brain (Mouse) (brain; mouse brain): 88.487 fold |
| KTERASGSPHSKAQNQQT | – | – | – | – | – | – | 0.000 fold | 103.669 fold | 0.000 fold | 0.070 fold | 0.127 fold | 0.000 fold | 115.550 fold | 103.669 fold | 0.000 fold | 0.000 fold | 0.070 fold | 0.127 fold | 0.000 fold | 115.550 fold | – |
